Values quoted from earlier work in patent US11260023B2, “Topical compositions containing rofecoxib and methods of making and using the same” (BRIORI BIOTECH, LLC, priority 2020, dated 2022).

Tests used:
[1] = of the solvent; cited from earlier work
[2] = after 24 hours after 25 hours; cited from earlier work

Compound	logP [1]	Δd (dispersion) [1] [MPa^1/2]	Δh (hydrogen bonding) [1] [MPa^1/2]	Δp (polar) [1] [MPa^1/2]	amount of diclofenac that penetrates into the blood [2] [mg]
CC(C)OC(=O)CCCCC(=O)OC(C)C [Diisopropyl Adipate, diisopropyl adipate]	2.2				
CCOC(=O)CCCCCCCCC(=O)OCC [Diethyl Sebacate, diethyl sebacate]	3.5	16	4.7	4	
CCOC(C)=O [Ethyl Acetate, ethyl acetate]	0.76	15.8	7.2	5.3	
O=C(O)Cc1ccccc1Nc1c(Cl)cccc1Cl [diclofenac]					0.067
CCCCCCCCCCCCCC(=O)OC(C)C [Isopropyl tetradecanoate, isopropyl tetradecanoate]		16.2	3.7	2.4	
CCOCCOCCO [Diethylene Glycol Monoethyl Ether, diethylene glycol monoethyl ether]	−0.5	16.2	14.3	9.2	
CN1CCCC1=O [N-Methyl-2-Pyrrolidone, N-methyl-2-pyrrolidone]	0.5	18	7.2	12.3	
CC1COC(=O)O1 (centres unmarked) [Propylene Carbonate, propylene carbonate]	−0.4	20	4.1	18	
CC(O)CC(C)(C)O (centres unmarked) [2-Methyl-pentane-2,4-diol, 2-methylpentane-2,4-diol]	0.3	16.4	20.6	8	
C[S+](C)[O-] [Dimethyl Sulfoxide, dimethyl sulfoxide]	−0.6	18.4	10.2	16.4	
CO[C@H]1CO[C@H]2[C@@H]1OC[C@H]2OC [Dimethyl Isosorbide, isosorbide dimethyl ether]	−0.6	17.6	7.5	7.1	
CC(C)=O [Acetone, acetone]	−0.1	15.5	7	10.4	
CC(O)CO (centres unmarked) [Propylene Glycol, MP, propylene glycol]	−0.9	16.8	23.3	9.4	
OCc1ccccc1 [Benzyl Alcohol, benzyl alcohol]		18.4	13.7	6.3	
CC1=CCC(C(C)(C)O)CC1 (stereo not drawn) [alpha-Terpineol 95.0+ %, alpha-terpineol]	1.8	17.1	7.6	3.6	
CC(=O)OCC(C)OC(C)=O (centres unmarked) [Propylene Glycol Diacetate, propylene glycol diacetate]	0.7				
